Reference: patent publication US6436981B1 (dated 2002)

SMILES | melting point [°C]
CO/N=C(C)/C(=N/N=C/c1ccccc1-n1c(OC)nn(C)c1=O)C1CC1 | 146 to 148
CON=C(C(C)=NN=Cc1ccccc1-n1c(OC)nn(C)c1=O)c1cccc(C(F)(F)F)c1 | 157 to 161
